# From PMC4823997 (Journal of medicinal chemistry, 2015)
# Like-named read-outs stand apart in the source and are kept apart here.
# Tests used:
# Cytotoxicity assay [1] = type: cell-based, human; conditions: human, CEM cells (T-lymphoblast leukemia)
# Cytotoxicity assay [2] = type: cell-based; conditions: human, TZM-bl cells
# hCXCR4 = hCXCR4 (Homo sapiens, UniProt P61073); experiment: Radioligand [125I]SDF-1α binding to hCXCR4-transfected HEK293 membrane; conditions: for fold increase in CXCR4 binding affinity compared to compound 4: relative to compound 4; for fold decrease in CXCR4 binding affinity compared to compound 18: relative to compound 18; for fold decrease in CXCR4 binding compared to compound 25: relative to compound 25
# CEM cells = experiment: Cytotoxicity assay; type: cell-based, human; conditions: for CC50: read-out: Cytotoxicity CC50 CEM, CEM cells, 72 h
# HIV-1 IIIB = experiment: Luciferase activity assay of HIV-1 infectivity in TZM-bl cells; type: cell-based; conditions: read-out: Anti-HIV EC50
# TZM-bl cells = experiment: Cytotoxicity assay; type: cell-based; conditions: for CC50: read-out: Cytotoxicity CC50 TZM-bl, TZM-bl cells, 72 h
# [3] = TZM-bl cells, HIV-1 IIIB, M.O.I. 1
# Chain of hCXCR4 (P61073 whole entry): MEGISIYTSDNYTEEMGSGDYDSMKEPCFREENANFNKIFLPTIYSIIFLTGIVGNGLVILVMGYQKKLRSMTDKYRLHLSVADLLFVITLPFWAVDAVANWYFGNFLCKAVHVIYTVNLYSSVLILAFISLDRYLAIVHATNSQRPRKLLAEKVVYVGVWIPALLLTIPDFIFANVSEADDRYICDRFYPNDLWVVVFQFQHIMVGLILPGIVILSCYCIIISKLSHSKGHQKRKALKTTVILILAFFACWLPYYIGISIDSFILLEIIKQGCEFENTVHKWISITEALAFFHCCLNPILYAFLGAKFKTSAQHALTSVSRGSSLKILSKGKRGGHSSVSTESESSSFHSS
Structure (SMILES),CC50 at 72 h (Cytotoxicity assay [1]) [µM],selectivity ratio at 72 h (Cytotoxicity assay [1]),CC50 at 72 h (Cytotoxicity assay [2]) [µM],selectivity ratio at 72 h (Cytotoxicity assay [2]),further results
"COc1ccc2nc(NCc3ccc(CNCCCNC4CCCCC4)cc3)nc(NC3CCNCC3)c2c1 [Compound 9, N^2-{4-[(3-Cyclohexylamino-propylamino)-methyl]-benzyl}-6-methoxy-N^4-piperidin-4-yl-quinazoline-2,4-diamine]",8 ± 1.7,169,8.4 ± 1,177,fold increase in CXCR4 binding affinity compared to compound 4 (hCXCR4): 4−5 fold
"c1nc2c(NCc3ccc(CNCCCNC4CCCCC4)cc3)nc(N3CCNCC3)nc2[nH]1 [Compound 18, N-Cyclohexyl-N′-{4-[(2-piperazin-1-yl-9H-purin-6-ylamino)-methyl]-benzyl}-propane-1,3-diamine]",> 50,> 25000,> 50,> 25000,–
"c1nc2c(NCCc3ccc(CNCCCNC4CCCCC4)cc3)nc(N3CCNCC3)nc2[nH]1 [Compound 23, N-Cyclohexyl-N′-{4-[2-(2-piperazin-1-yl-9H-purin-6-ylami-no)-ethyl]-benzyl}-propane-1,3-diamine]",–,–,–,–,Selective Index CC50/EC50 CEM (CEM cells): 15065; CC50 (CEM cells): 46.7 ± 3.2 µM; EC50 (HIV-1 IIIB; [3]): 0.0031 ± 0.0007 µM; Selective Index CC50/EC50 TZM-bl (TZM-bl cells): >16129; CC50 (TZM-bl cells): > 50 µM; fold decrease in CXCR4 binding affinity compared to compound 18 (hCXCR4): around 2 fold
"COc1ccc2nc(NCc3ccc(CNCCCN4CCCCC4)cc3)nc(NC3CCNCC3)c2c1 [Compound 15, 6-Methoxy-N^4-piperidin-4-yl-N^2-{4-[(3-piperidin-1-yl-propy-lamino)-methyl]-benzyl}-quinazoline-2,4-diamine]",–,–,–,–,Selective Index CC50/EC50 CEM (CEM cells): 196; CC50 (CEM cells): 18.4 ± 5.5 µM; EC50 (HIV-1 IIIB; [3]): 0.0939 ± 0.0147 µM; Selective Index CC50/EC50 TZM-bl (TZM-bl cells): 261; CC50 (TZM-bl cells): 24.5 ± 2.5 µM
"c1nc2c(NCc3ccc(CNCCCNC4CCCCC4)cc3)nc(N3CCC(C4CCNCC4)CC3)nc2[nH]1 [Compound 21, N-{4-[(2-[4,4′]Bipiperidinyl-1-yl-9H-purin-6-ylamino)-methyl]-benzyl}-N′-cyclohexyl-propane-1,3-diamine]",> 50,> 593,> 50,> 593,fold decrease in CXCR4 binding affinity compared to compound 18 (hCXCR4): 2−3 fold
"c1cc(CN2CCCNCCNCCCNCC2)ccc1CN1CCCNCCNCCCNCC1 [AMD3100, reference compound]",–,–,–,–,"EC50 (HIV-1 IIIB; Human immunodeficiency virus 1, IIIB, TZM-bl): 0.0666 ± 0.0231 µM"
"COc1ccc2c(NC3CCNCC3)nc(NCc3ccc(CNCCCNC4CCCCC4)cc3)nc2c1 [Compound 10, N^2-{4-[(3-Cyclohexylamino-propylamino)-methyl]-benzyl}-7-methoxy-N^4-piperidin-4-yl-quinazoline-2,4-diamine]",1.6 ± 0.6,186,10.8 ± 3.3,1260,fold increase in CXCR4 binding affinity compared to compound 4 (hCXCR4): 4−5 fold
"c1nc2c(NCc3cncc(CNCCCNC4CCCCC4)c3)nc(N3CCNCC3)nc2[nH]1 [Compound 27, N-Cyclohexyl-N′-{5-[(2-piperazin-1-yl-9H-purin-6-ylamino)-methyl]-pyridin-3-ylmethyl}-propane-1,3-diamine]",> 50,> 8770,> 50,> 8770,fold decrease in CXCR4 binding compared to compound 25 (hCXCR4): 4−10 fold
"Cn1cnc2c(NCc3ccc(CNCCCNC4CCCCC4)cc3)nc(N3CCNCC3)nc21 [Compound 19, N-Cyclohexyl-N′-{4-[(9-methyl-2-piperazin-1-yl-9H-purin-6-ylamino)-methyl]-benzyl}-propane-1,3-diamine]",20.2 ± 1.5,5940,18.6 ± 2,5470,fold decrease in CXCR4 binding affinity compared to compound 18 (hCXCR4): 4−5 fold
"COc1ccc2c(NC3CCNCC3)nc(NCc3ccc(CNCCCNC4CCCCCC4)cc3)nc2c1 [Compound 13, N^2-{4-[(3-Cycloheptylamino-propylamino)-methyl]-benzyl}-7-methoxy-N^4-piperidin-4-yl-quinazoline-2,4-diamine]",6.1 ± 1.1,134,10.8 ± 0.8,238,fold increase in CXCR4 binding affinity compared to compound 4 (hCXCR4): 4−5 fold
"CC1(C)CN2C(CSC(=NC3CCCCC3)NC3CCCCC3)=CSC2=N1 [IT1t, reference compound]",–,–,–,–,EC50 (HIV-1 IIIB; [3]): > 0.07 µM
"COc1ccc2nc(NCc3ccc(CNCCCNC4CCCCCC4)cc3)nc(NC3CCNCC3)c2c1 [Compound 12, N^2-{4-[(3-Cycloheptylamino-propylamino)-methyl]-benzyl}-6-methoxy-N^4-piperidin-4-yl-quinazoline-2,4-diamine]",6.5 ± 1.1,153,21.7 ± 7,509,fold increase in CXCR4 binding affinity compared to compound 4 (hCXCR4): 4−5 fold
"c1cc(CNCCCNC2CCCCC2)nc(CNc2nc(N3CCNCC3)nc3[nH]cnc23)c1 [Compound 26, N-Cyclohexyl-N′-{6-[(2-piperazin-1-yl-9H-purin-6-ylamino)-methyl]-pyridin-2-ylmethyl}-propane-1,3-diamine]",> 50,> 20000,> 50,> 20000,fold decrease in CXCR4 binding compared to compound 25 (hCXCR4): 4−10 fold
"COc1cc2nc(NCc3ccc(CNCCCNC4CCCCC4)cc3)nc(NC3CCNCC3)c2cc1OC [Compound 11, N^2-{4-[(3-Cyclohexylamino-propylamino)-methyl]-benzyl}-6,7-dimethoxy-N^4-piperidin-4-yl-quinazoline-2,4-diamine]",17.5 ± 2.4,806,23.1 ± 7,1060,–
"COc1cc2nc(NCc3ccc(CNCCCNC4CCCCCC4)cc3)nc(NC3CCNCC3)c2cc1OC [Compound 14, N^2-{4-[(3-Cycloheptylamino-propylamino)-methyl]-benzyl}-6,7-methoxy-N^4-piperidin-4-yl-quinazoline-2,4-diamine]",–,–,–,–,Selective Index CC50/EC50 CEM (CEM cells): 376; CC50 (CEM cells): 18.2 ± 4.5 µM; EC50 (HIV-1 IIIB; [3]): 0.0484 ± 0.0034 µM; Selective Index CC50/EC50 TZM-bl (TZM-bl cells): 399; CC50 (TZM-bl cells): 19.3 ± 0.88 µM
"c1nc2c(NCc3ccc(CNCCCNC4CCCCC4)cn3)nc(N3CCNCC3)nc2[nH]1 [Compound 22, N-Cyclohexyl-N′-{6-[(2-piperazin-1-yl-9H-purin-6-ylamino)-methyl]-pyridin-3-ylmethyl}-propane-1,3-diamine]",> 50,> 11900,> 50,> 11900,fold decrease in CXCR4 binding affinity compared to compound 18 (hCXCR4): 2 fold
"COc1ccc2c(NC3CCNCC3)nc(NCc3ccc(CNCCCN4CCCCC4)cc3)nc2c1 [Compound 16, 7-Methoxy-N^4-piperidin-4-yl-N^2-{4-[(3-piperidin-1-yl-propy-lamino)-methyl]-benzyl}-quinazoline-2,4-diamine]",–,–,–,–,Selective Index CC50/EC50 CEM (CEM cells): 511; CC50 (CEM cells): 13.8 ± 1.9 µM; EC50 (HIV-1 IIIB; [3]): 0.027 ± 0.0042 µM; Selective Index CC50/EC50 TZM-bl (TZM-bl cells): 1193; CC50 (TZM-bl cells): 32.2 ± 0.2 µM
"COc1cc2nc(NCc3ccc(CNCCCN4CCCCC4)cc3)nc(NC3CCNCC3)c2cc1OC [Compound 17, 6,7-Dimethoxy-N^4-piperidin-4-yl-N^2-{4-[(3-piperidin-1-yl-propylamino)-methyl]-benzyl}-quinazoline-2,4-diamine]",17.6 ± 3,672,28.1 ± 1.5,1070,–
"CN1CCN(c2nc(NCc3ccc(CNCCCNC4CCCCC4)cc3)c3ncn(C)c3n2)CC1 [Compound 20, N-Cyclohexyl-N′-(4-{[9-methyl-2-(4-methyl-piperazin-1-yl)-9H-purin-6-ylamino]-methyl}-benzyl)-propane-1,3-diamine]",13.8 ± 1.8,2120,11.2 ± 2.1,1720,fold decrease in CXCR4 binding affinity compared to compound 18 (hCXCR4): 4−5 fold
